Where two headings read alike, the source gives them in different places.
Tests used:
Type in all cases: in vivo
serotonin = assay: combined apomorphine, tryptamine, norepinephrine (ATN) test in rats: tryptamine (TRY), central (convulsions) and peripheral (hyperaemia) serotonin antagonism; conditions: Rattus norvegicus
dopamine = assay: combined apomorphine, tryptamine, norepinephrine (ATN) test in rats: apomorphine (APO), central dopamine antagonism; conditions: Rattus norvegicus, preventing the symptoms elicited with apomorphine
norepinephrine = assay: combined apomorphine, tryptamine, norepinephrine (ATN) test in rats: norepinephrine (NOR), peripheral α-adrenergic antagonism; conditions: Rattus norvegicus, read-out: NOR, ED50
[1] = preventing central symptoms (convulsions), central serotonin antagonism, read-out: TRY convulsions, ED50
[2] = preventing peripheral symptoms (hyperaemia), peripheral serotonin antagonism, read-out: TRY hyperaemia, ED50
[3] = preventing or delaying death upon administration of norepinephrine, rats, peripheral α-adrenergic antagonism

| Structure (SMILES) | ED50 (serotonin; [1]) [mg/kg] | ED50 (serotonin; [2]) [mg/kg] | ED50 (dopamine) [mg/kg] | ED50 (norepinephrine) [mg/kg] | ED50 (norepinephrine; [3]) [mg/kg] |
| --- | --- | --- | --- | --- | --- |
| Cc1nc2n(c(=O)c1CCN1CCC(n3ccc4ccccc43)CC1)CCS2 [Compound 1, 2,3-dihydro-6[2-[4-(1H-indol-1-yl)-1-piperidinyl]ethyl]-7-methyl-5H-thiazolo[3,2-a]-pyrimidin-5-one] | 0.63 | 0.04 | 0.63 | > 10 |  |
| Cc1nc2n(c(=O)c1CCN1CCC(n3ccc4cc(F)ccc43)CC1)CCS2 [Compound 2] | 0.63 | 0.01 | 0.16 | 10 |  |
| Cc1nc2sccn2c(=O)c1CCN1CCC(n2ccc3ccccc32)CC1 [Compound 3, 6-[2-[4-(1H-indol-1-yl)-1-piperidinyl]ethyl]-7-methyl-5H-thiazolo[3,2-a]pyrimidin-5-one] | 0.16 | 0.01 | 0.16 | > 10 |  |
| Cc1nc2sccn2c(=O)c1CCN1CCC(n2ccc3cc(F)ccc32)CC1 [Compound 4, 6-[2-[4-(5-fluoro-1H-indol-1-yl)-1-piperidinyl]ethyl]-7-methyl-5H-thiazolo[3,2-a]-pyrimidin-5-one] | 0.04 | 0.01 | 0.04 | 2.5 |  |
| Cc1nc2sccn2c(=O)c1CCN1CCC(N2CCc3ccccc32)CC1 [Compound 5] | 0.31 | 0.02 | 0.08 |  |  |
| Cc1nc2scc(C)n2c(=O)c1CCN1CCC(n2ccc3ccccc32)CC1 [Compound 6, 6-[2-[4-(1H-indol-1-yl)-1-piperidinyl]ethyl]-3,7-dimethyl-5H-thiazolo[3,2-a]pyrimidin-5-one] | 0.16 | 0.01 | 0.16 | 10 |  |
| Cc1nn2c(=O)c(CCN3CCC(n4ccc5cc(F)ccc54)CC3)c(C)nc2s1 [Compound 8, 6-[2-[4-(5-fluoro-1H-indol-1-yl)-1-piperidinyl]-ethyl]-2,7-dimethyl-5H-1,3,4-thiadiazolo[3,2-a]pyrimidin-5-one] | 0.63 | 0.04 | 0.63 | 10 |  |
| Cc1cc2nc(C)c(CCN3CCC(n4ccc5cc(F)ccc54)CC3)c(=O)n2o1 [Compound 10] | 0.16 | 0.0025 | 0.63 | 10 |  |
| Cc1nc2n(c(=O)c1CCN1CCC(n3ccc4cc(F)ccc43)CC1)CCCC2 [Compound 12, 3-[2-[4-(5-fluoro-1H-indol-1-yl)-1-piperidinyl]ethyl]-6,7,8,9-tetrahydro-2-methyl-4H-pyrido[1,2-a]pyrimidin-4-one] | 0.31 | 0.02 | 0.31 | > 10 |  |
| COC1CCCn2c1nc(C)c(CCN1CCC(n3ccc4cc(F)ccc43)CC1)c2=O (centres unmarked) [Compound 15] | 0.63 | 0.01 | 0.16 | 10 |  |
| Cc1nc2n(c(=O)c1CCN1CCC(n3ccc4ccccc43)CC1)CCCS2 [Compound 16] | 0.63 | 0.02 | 0.16 | 10 |  |
| Cc1nc2n(c(=O)c1CCN1CCC(n3ccc4cc(F)ccc43)CC1)CCCS2 [Compound 17] | 0.16 | 0.02 | 0.08 |  | 5 |
| Cc1nc2ccccn2c(=O)c1CCN1CCC(n2ccc3cc(F)ccc32)CC1 [Compound 18] | 0.08 | 0.01 | 0.08 |  | 5 |
| Cc1nc2c(C)cccn2c(=O)c1CCN1CCC(n2ccc3ccccc32)CC1 [Compound 19] | 2.5 | 0.63 | 0.63 | > 10 |  |
| Cc1nc2c(C)cccn2c(=O)c1CCN1CCC(n2ccc3cc(F)ccc32)CC1 [Compound 20] | 0.63 | 0.16 | 0.63 | > 10 |  |
| CNc1nc(C)c(CCN2CCC(n3ccc4cc(F)ccc43)CC2)c(=O)n1C [Compound 24, 5-[2-[4-(5-fluoro-1H-indol-1-yl)-1-piperidinyl]ethyl]-3,6-dimethyl-2-(methylamino)-4(3H)-pyrimidinone] | 0.16 | 0.01 | 0.63 | 10 |  |
| CCSc1nc(C)c(CCN2CCC(n3ccc4ccccc43)CC2)c(=O)n1C [Compound 25] | 2.5 | 0.16 | 0.63 | > 10 |  |
| O=C(O)/C=C/C(=O)O.O=c1[nH]c2ccccc2n1CCCN1CCC(n2ccc3cc(F)ccc32)CC1 [Compound 28, 1-[3-[4-(5-fluoro-1H-indol-1-yl)-1-piperidinyl]propyl]-1,3-dihydro-2H-benzimidazol-2-one (E)-2-butenedioate (1:1)] | 0.16 | 0.01 |  | > 10 |  |
| Cc1nc2n(c(=O)c1CCN1CCC(n3ccc4cc(F)ccc43)CC1)C(C)CCC2 (centres unmarked) [Compound 29] | 0.31 | 0.005 | 0.08 |  | 5 |
| Cc1nc2n(c(=O)c1CCN1CCC(N3CCc4ccccc43)CC1)CCCC2 [Compound 31] | 1.25 | 0.31 | 1.25 |  |  |
| Cc1nc2n(c(=O)c1CCN1CCC(N3c4ccccc4CC3C)CC1)CCCC2 (centres unmarked) [Compound 34] | > 10 | ≤ 0.63 | 5 |  |  |
